Data: patent US10961222B2, “Chemical compound of isocitrate dehydrogenase inhibitor, and application thereof” (NANJING SANHOME PHARMACEUTICAL CO., LTD., priority 2016, dated 2021)

Tests used:
IDH2-R140Q mutant enzyme = molecular target: T1, IDH2-R140Q mutant enzyme (Homo sapiens, UniProt P48735, R140Q); assay: Inhibitory activity of compounds on IDH2-R140Q enzyme in vitro (diaphorase/resazurin fluorescence); format: biochemical; details: IDH2-R140Q, pre-incubated 16 h with enzyme and NADPH, reaction 1 h with α-ketoglutarate; read-out: R140Q IC50
T1 construct: purchased BPS 71100-1
T1 sequence (P48735 40-452 R140Q): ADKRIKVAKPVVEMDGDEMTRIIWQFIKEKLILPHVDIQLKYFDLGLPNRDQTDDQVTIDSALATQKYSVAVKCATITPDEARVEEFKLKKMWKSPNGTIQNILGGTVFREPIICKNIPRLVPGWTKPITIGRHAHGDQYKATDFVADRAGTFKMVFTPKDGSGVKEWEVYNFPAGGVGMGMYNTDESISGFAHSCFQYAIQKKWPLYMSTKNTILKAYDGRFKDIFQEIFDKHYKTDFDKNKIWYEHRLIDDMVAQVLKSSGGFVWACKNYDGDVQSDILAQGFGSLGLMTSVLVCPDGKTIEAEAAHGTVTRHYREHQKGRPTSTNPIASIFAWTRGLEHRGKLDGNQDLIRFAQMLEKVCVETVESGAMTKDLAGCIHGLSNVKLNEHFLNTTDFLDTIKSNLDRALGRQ
Description: Instrument: SpectraMax M3 Multi-Mode Microplate Reader, purchased from Molecular Devices.
In a 96-well plate, 40 μL of reaction buffer containing 2× enzyme (IDH2-WT or IDH2-R140Q) and cofactor (NADP or NADPH) was added to each well of the compound group and the DMSO control group, and 40 μL of reaction buffer containing 2× cofactor (NADP or NADPH) was added to each well of the enzyme-free control group.
20 μL of reaction buffer containing 4× compound to be tested was added to each well of the compound group. The compound was pre-formulated into 200× mother liquor with 100% DMSO; in the final reaction system, the concentration of DMSO was 0.5%. 20 μL of reaction buffer containing DMSO was added to each well of the DMSO control group; in the final reaction system, the concentration of DMSO was 0.5%.
The compound was mixed well with the enzyme and cofactor, and pre-incubated at room temperature for 16 h;
20 μL of reaction buffer containing 4× reaction substrate was added to each well. After mixed uniformly, the mixture was reacted at room temperature for 1 h.
3× termination and detection solution (it was prepared with reaction buffer, the final concentration of Diaphorase was 0.015 mg/mL, and the final concentration of Resazurin was 0.03 mM) was prepared. 40 μL of 3× termination and detection solution was added to each well of the enzyme reaction system. After mixed uniformly, the mixture was incubated at room temperature for 10 min;
Fluorescence values of two wells were obtained and averaged and the activity rate (Activity %) was calculated. The calculation formula: Activity %=(Measured data−Subtract background)/(DMSO Control−Subtract background)×100, wherein “Measured data” is fluorescence value of the compound in the pre-incubated wells, “Subtract background” is the fluorescence value of the enzyme-free control wells, and “DMSO Control” is the fluorescence value in the DMSO pre-incubated wells. Data was processed by GraphPad Prism v5.0 software and fitted to obtain IC50.

[1] = molecular target: T2, U87-MG cell line of overexpressed mutant IDH2 (R140Q) (Homo sapiens, UniProt P48735, R140Q); assay: Cell activity in vitro: 2-HG in culture supernatant of U87-MG (IDH2-R140Q) cells by LC-MS/MS; format: cell-based; details: U87-MG (IDH2-R140Q) cells, 72 hours, 2-HG in supernatant; read-out: IC50 (2-HG remaining compared to untreated)
T2 construct: expressed in transfected cells
T2 sequence (P48735 40-452 R140Q): T1 sequence (P48735 40-452 R140Q)
Description: 1.2 Cells: human glioblastoma cell line U87-MG, purchased from the American Type Culture Collection (ATCC);
Cell recovery: U87-MG (IDH2-R140Q) cells and U87-MG cells were put into a 37° C. water bath, then transferred to 15 mL of pre-warmed medium, centrifuged at 1000 rpm for 5 minutes, and the medium was discarded. The cells were resuspended in 15 mL of fresh medium, transferred to a T75 flask and cultured in a 37° C. incubator with 5% CO2. After 24 hours, the medium was changed to fresh medium.
Cell passage: The above-mentioned recovered cells were transferred to a 50 mL sterile centrifuge tube, centrifuged at 1000 rpm for 5 minutes, and the medium was discarded. The cells were resuspended evenly and counted. The cell density was adjusted appropriately in a 15 mL fresh medium, and then added to T75 culture flask. The culture flask was incubated in an incubator with 5% CO2 at 37° C.
After cells grown to a relatively high density in the culture dish, the cells were trypsinized, resuspended in medium (MEM+10% FBS), and counted. After adjusting the cell concentration, the resuspended cells were seeded in a 96-well plate at 5×10^3 cells per well. After inoculation, the cells were cultured for 24 hours until the cells adhered. The medium were sucked out, and the medium containing gradient concentration of compound was added, 100 μL per well. The cells were further cultured for 72 hours. The s 20 μL of upernatant was taken and put into a 2 mL 96-well sample-processing plate. 480 μL of dilution solution was added and shaken for mixing, and then centrifuged at 4500 rpm for 5 minutes. 200 μL of supernatant was transferred for LC-MS/MS injection analysis.
Column: Shim-pack XR-ODS 30L*2.0; mobile phase: acetonitrile-0.2% ammonia, 5 mM ammonium acetate aqueous solution; column temperature: 30° C.; flow rate: 0.4 mL/min; gradient elution conditions are as follows: […]
Atmospheric […] chemical ionization (APCI) was used. Source parameters was set as follows: IonSpray Voltage/IS-4500V; auxiliary gas 1 (Ion Source Gas 1/GS 1, N2), 55Arb; auxiliary gas 2 (Ion Source Gas 2, N2), 55Arb; auxiliary gas heating temperature (Temperature/TEM), 500° C.; curtain gas/CUR, 25Arb; collision gas/CAD, N2, 8 Pa.
Multi-ion reaction monitoring (MRM) in negative ion mode (Negative) was used. […] The internal standard (IS) MRM parameters: parent ion (Q 1 Mass), 178.0 Da; daughter ion (Q3 Mass), 149.0 Da; Decluster Potential (DP), −51V; collision voltage (Collision Energy/CE), −17 eV
By determining the 2-HG content in the cell culture supernatant of each well using LC-MS/MS, the mutant enzyme activity (2-HG remaining compared to untreated %) was calculated. The calculation formula: 2-HG remaining compared to untreated %=(Measured 2-HG level—U87-MG control 2-HG level)/(Untreated 2-HG level—U87-MG control 2-HG level)×100. […] Data were processed by GraphPad Prism v5.0 software and fitted to obtain IC50.

[2] = system: U87-MG (IDH2-R140Q) subcutaneous xenograft tumor; assay: Subcutaneous xenograft tumor caused by U87-MG (IDH2-R140Q) mutant cells in vivo: intratumor 2-HG; parameters: species or system BALB/c nude mice; details: U87-MG (IDH2-R140Q) subcutaneous xenograft model
Text: 1.2 Animals: BALB/c nude mice, 6-7 weeks old, female, 18-22 g, purchased from Nanjing Jinlaichang Company.
U87-MG (IDH2-R140Q) cells and U87-MG cells (wild type) were expanded, and cells in logarithmic growth phase were used for tumor inoculation in vivo. 16 mice were inoculated subcutaneously into the right lower back of the body at an amount of 2×10^6 cells/mouse (the volume ratio of cell suspension to Matrigel was 1:0.8).
The non-mutation control group was nude mice inoculated with U87-MG cells, and the test compound groups and vehicle control group were nude mice inoculated with U87-MG (IDH2-R140Q) cells.
Each group was intragastrically administered with a corresponding concentration of the compound solution, the administration volume was 100 μL/10 g body weight, and the control group was administered the same volume of blank vehicle.
After 10 days of administration, the mice were sacrificed. The tumors were exfoliated, homogenized, and the 2-HG content in the tumor was examined.
The 2-HG concentration in the homogenate of each animal tumor in each group was determined by LC-MS/MS. The percentage (2-HG %) was calculated; the calculation formula is as follows 2-HG %=(2-HG concentration of administration group tumor−2-HG concentration of U87-MG control group tumor)/(2-HG concentration of U87−MG(IDH2-R140Q) control group tumor−2-HG concentration of U87-MG control group tumor)×100%.

CCN(CC(C)(C)O)c1nc(Nc2ccnc(C(F)(F)F)c2)nc(-c2cccc(C(F)(F)F)n2)n1 [Example 31, 1-(Ethyl(4-(6-(trifluoromethyl)pyridin-2-yl)-6-((2-(trifluoromethyl)pyridin-4-yl)amino)-1,3,5-triazin-2-yl)amino)-2-methylpropan-2-ol]
IC50 (IDH2-R140Q mutant enzyme): 21.3 nM | IC50 [1]: 38.1 nM

OC1(C(F)(F)F)CCN(c2nc(Nc3ccnc(C(F)(F)F)c3)nc(-c3cccc(C(F)(F)F)n3)n2)CC1 [Example 38, 4-(Trifluoromethyl)-1-(4-(6-(trifluoromethyl)pyridin-2-yl)-6-((2-(trifluoromethyl)pyridin-4-yl)amino)-1,3,5-triazin-2-yl)piperidin-4-ol]
IC50 (IDH2-R140Q mutant enzyme): 25.2 nM | IC50 [1]: 59.1 nM

CC(C)(C)ONc1nc(Nc2ccnc(C(F)(F)F)c2)nc(-c2cccc(C(F)(F)F)n2)n1 [Example 28, 4-(Tert-Butoxyamino)-6-(6-(trifluoromethyl)pyridin-2-yl)-N-(2-(trifluoromethyl)pyridin-4-yl)-1,3,5-triazin-2-amine]
IC50 (IDH2-R140Q mutant enzyme): 12.2 nM | IC50 [1]: 25.1 nM

O[C@]1(C(F)(F)F)CCN(c2nc(Nc3ccnc(C(F)(F)F)c3)nc(-c3cccc(C(F)(F)F)n3)n2)C1 [Example 22A, (R)-4-(3-trifluoromethyl-3-hydroxypyrrolidin-1-yl)-6-(6-(trifluoromethyl)pyridin-2-yl)-N-(2-(trifluoromethyl)pyridin-4-yl)-1,3,5-triazin-2-amine]
ability of lowering 2-HG level compared with positive compound AG-221 [2]: substantially superior

OC1CN(c2nc(Nc3ccnc(C(F)(F)F)c3)nc(-c3cccc(C(F)(F)F)n3)n2)C1 [Example 32]
IC50 (IDH2-R140Q mutant enzyme): 26.5 nM | IC50 [1]: 36.1 nM

FC(F)(F)COc1nc(Nc2ccnc(C(F)(F)F)c2)nc(-c2cccc(C(F)(F)F)n2)n1 [Example 43, 4-(2,2,2-Trifluoroethoxy)-6-(6-(trifluoromethyl)pyridin-2-yl)-N-(2-(trifluoromethyl)pyridin-4-yl)-1,3,5-triazin-2-amine]
IC50 (IDH2-R140Q mutant enzyme): 5.8 nM | IC50 [1]: 9.6 nM

CC1(O)CN(c2nc(Nc3ccnc(C(F)(F)F)c3)nc(-c3cccc(C(F)(F)F)n3)n2)C1 [Example 33]
IC50 (IDH2-R140Q mutant enzyme): 29.2 nM | IC50 [1]: 10.2 nM

CC(C)Oc1nc(Nc2ccnc(C(F)(F)F)c2)nc(-c2cccc(C(F)(F)F)n2)n1 [Example 42, 4-Isopropoxy-6-(6-(trifluoromethyl)pyridin-2-yl)-N-(2-(trifluoromethyl)pyridin-4-yl)-1,3,5-triazin-2-amine]
IC50 (IDH2-R140Q mutant enzyme): 5.1 nM | IC50 [1]: 8.1 nM

CC(C)(O)CCc1nc(Nc2ccnc(C(F)(F)F)c2)nc(-c2cccc(C(F)(F)F)n2)n1 [Example 41, 2-Methyl-4-(4-(6-(trifluoromethyl)pyridin-2-yl)-6-((2-(trifluoromethyl)pyridin-4-yl)amino)-1,3,5-triazin-2-yl)-3-butan-2-ol]
IC50 (IDH2-R140Q mutant enzyme): 16.1 nM | IC50 [1]: 10.1 nM

FC1(F)CN(c2nc(Nc3ccnc(C(F)(F)F)c3)nc(-c3cccc(C(F)(F)F)n3)n2)C1 [Example 35, 4-(3,3-Difluoroazetidin-1-yl)-6-(6-(trifluoromethyl)pyridin-2-yl)-N-(2-(trifluoromethyl)pyridin-4-yl)-1,3,5-triazin-2-amine]
IC50 (IDH2-R140Q mutant enzyme): 8.3 nM | IC50 [1]: 9.8 nM

CC(C)(O)/C=C/c1nc(Nc2ccnc(C(F)(F)F)c2)nc(-c2cccc(C(F)(F)F)n2)n1 [Example 40, 2-Methyl-4-(4-(6-(trifluoromethyl)pyridin-2-yl)-6-((2-(trifluoromethyl)pyridin-4-yl)amino)-1,3,5-triazin-2-yl)-3-buten-2-ol]
IC50 [1]: 33.1 nM

CN(C)Nc1nc(Nc2ccnc(C(F)(F)F)c2)nc(-c2cccc(C(F)(F)F)n2)n1 [Example 29]
IC50 (IDH2-R140Q mutant enzyme): 5.8 nM | IC50 [1]: 17.1 nM

FC(F)(F)c1cc(Nc2nc(-c3cccc(C(F)(F)F)n3)nc(N3CCOCC3)n2)ccn1 [Example 4, 4-Morpholinyl-6-(6-(trifluoromethyl)pyridin-2-yl)-N-(2-(trifluoromethyl)pyridin-4-yl)-1,3,5-triazin-2-amine]
IC50 (IDH2-R140Q mutant enzyme): 15 nM | IC50 [1]: 21 nM

CC(Oc1nc(Nc2ccnc(C(F)(F)F)c2)nc(-c2cccc(C(F)(F)F)n2)n1)C(F)(F)F (stereo not shown) [Example 44, 4-(6-(Trifluoromethyl)pyridin-2-yl)-N-(2-(trifluoromethyl)pyridin-4-yl)-6-((1,1,1-trifluoroisopropyl-2-yl)oxy)-1,3,5-triazin-2-amine]
IC50 (IDH2-R140Q mutant enzyme): 8.8 nM | IC50 [1]: 5.1 nM

CC(C)ONc1nc(Nc2ccnc(C(F)(F)F)c2)nc(-c2cccc(C(F)(F)F)n2)n1 [Example 27]
IC50 (IDH2-R140Q mutant enzyme): 12.5 nM | IC50 [1]: 31.2 nM
